The values that follow come from ChEMBL document CHEMBL1129024, “Design, synthesis, and antitumor activity of bicyclic and isomeric analogues of illudin M” (Bioorg Med Chem Lett, 1996).

Common to all, as to assay type: functional, cell-based
The subject of one test is SW480. As to the kind of experiment: In vitro antitumor activity against SW480 (colon) human tumor cell lines.
The test system of a further test is MDA-MB-231. Kind of test: In vitro antitumor activity against MB231 (breast) human tumor cell lines.
The subject of a further test is A549. Kind of test: In vitro antitumor activity against A549 (lung) human tumor cell lines.
The subject of another test is A-375. Kind of test: In vitro antitumor activity against A375 (melanoma) human tumor cell lines.

The structures appear in SMILES notation. Where only a bound is given, the exact number is not on record here.

A word on the IC50: it is the concentration that gives 50% inhibition. A low value points to greater potency. Consider `C/C=C1\C=C(C)C2(CC2)C(C)(O)C1=O` (stereo not given), for which the IC50 worked out at 0.12 µM in the test with SW480, 0.11 µM in the test on MDA-MB-231, 0.15 µM with A549 and 0.004 µM in the test with A-375.
On to `CC1=C/C(=C\C#CCCO)C(=O)C(C)(O)C12CC2` (stereo not given), for which the IC50 in the test with SW480 was 4 µM; in the test on MDA-MB-231 it was 2 µM; in the test on A549, 3 µM; in the test with A-375, 2 µM.
With `CC1=C/C(=C\c2cccs2)C(=O)C(C)(O)C12CC2` (stereo not given), the IC50 in the test with SW480, in the test on MDA-MB-231, in the test with A549 and in the test on A-375 was above 10 µM in each case.
Consider `C=C/C=C1\C=C(C)C2(CC2)C(C)(O)C1=O` (stereo not given), for which the IC50 with SW480 was found to be 0.18 µM; in the test with MDA-MB-231 it was 0.028 µM; in the test on A549, 0.002 µM; in the test on A-375, 0.018 µM.
For `C=C1C2=C(CC(C)(C)C2=O)C(=O)C(C)(O)C12CC2` (stereo not given), in that order: 0.06 µM, 2 µM, 0.25 µM and 0.032 µM.
`CC1=C/C(=C\C(C)C)C(=O)C(C)(O)C12CC2` (stereo not given): the IC50 in the test with SW480 is 0.03 µM; with MDA-MB-231, 0.3 µM; in the test with A549, 0.11 µM; with A-375, 0.13 µM.
For `CC1=C/C(=C\Cl)C(=O)C(C)(O)C12CC2` (stereo not given), in that order: 0.03 µM, 0.3 µM, 0.2 µM and 1 µM.
For `CC1=C/C(=C\c2ccccc2)C(=O)C(C)(O)C12CC2` (stereo not given), in that order: 2.5 µM, 4 µM, 1.5 µM and above 10 µM.
On the same counts, the results for `CC1=C2C(=O)C(C)(C)C=C2C(=O)[C@](C)(O)C12CC2` [DEHYDROILLUDIN M] are 0.3 µM, 0.45 µM, 0.2 µM and 0.55 µM.
Regarding `COc1cccc2c1C(=O)c1c(O)c3c(c(O)c1C2=O)C[C@@](O)(C(=O)CO)C[C@@H]3O[C@H]1C[C@H](N)[C@H](O)[C@H](C)O1` [DOXORUBICIN], the IC50 in the test on SW480 came out at 0.06 µM; in the test on MDA-MB-231, 0.15 µM; in the test with A549 it was 0.12 µM; in the test on A-375, 0.07 µM.
